Results on 2 molecules are retold here after patent US20030069200A1, “Use of glucosylceramide synthesis inhibitors in brain cancertherapy” (priority 2000, published 2003).

The subject of data set [1] is neuroblastoma cells. The following applies: in vitro, cited from earlier work.
For data set [2], the system named is EPEN cells. The data set is described as follows: Growth of cultured EPEN brain tumour cells (Coulter counter cell counts). In kind it is cell-based. As to conditions: NB-DNJ 200 μM. How it is done: (§1) Approximately 0.5×10^4 cells for CT-2A and 1×10^4 cells for EPEN were seeded in wells of a 24 well plate and cultured for 24 hours in DMEM supplemented with 10% FBS. The exact cellular origin of the CT-2A and EPEN tumours is not known, but Dr. Allan Yates, Chief of Neuropathology at Ohio State University classified the tumours as poorly differentiated anaplastic astrocytomas (see Seyfried et al Mol. Chem. Neuropathol. 17: 147-167, 1992).
(§2) Cells were cultured for a further 7 days in the same medium for control cells or in the presence of NB-DNJ (200 μM) for treated cells. Cells were counted on days 2, 4, 6 and 8 using a Coulter counter and the results are shown in FIGS. 2A and 2B where values are expressed as means±SEM (N=3).

In data set [3] the test system is CT-2A tumour. Put plainly: Intra-cranial CT-2A tumour growth and ganglioside content in C57BL/6J mice. In kind it is in vivo, mouse. On the procedure: (§3) CT-2A tumour tissue was minced and tissue pieces (about 1 mm^3) were implanted into the cerebral cortex of C57BL/6J mice using a trocar as described previously (Seyfried et al. 1987. Cancer Res. 47:3538-3542). The NB-DNJ diet as in Example 2. Control mice received only the powdered mouse chow. Tumours were excised from surrounding brain tissue, frozen, and lyophilized to remove water. Gangliosides were isolated and purified and content expressed as μg sialic acid/100 mg dry weight, as determined using the resorcinol reagent, as previously described (Seyfried et al. 1978. J. Neurochem. 31:21-27).

Data set [4] relates to CT-2A cells. Put plainly: Growth of cultured CT-2A brain tumour cells (Coulter counter cell counts). The following applies: NB-DNJ 200 μM. Type of data set: cell-based. How it is done:
as §1, §2

The test system of data set [5] is EPEN tumour. The data set is described as follows: Subcutaneous EPEN tumour growth in C57BL/6 mice. As to conditions: NB-DNJ 2400 mg/kg body wt/day in diet, ten days. Type of data set: in vivo, mouse. How it is done:
(§4) CT-2A and EPEN tumours were grown subcutaneously in the flanks of six-week old syngeneic C57BL/6 mice. The treated mice were maintained on a powdered mouse chow diet (Prolab, Agway) that contained NB-DNJ (2400 mg/kg body weight/day). The control mice received only the powdered mouse chow. Tumours were enzymatically dissociated as described in Ecsedy et al, J. Lipid Res., 39: 2218-2227, 1998 and approximately 5×10^6 cells from each tumour were inoculated subcutaneously into the flanks of the host mice. For the CT-2A-bearing mice, drug treatment was started six days post-tumour cell inoculation and was continued for a total of nine days. For the EPEN-bearing mice, drug treatment was started eleven days post-tumour inoculation and was continued for a total of ten days. This was done because the EPEN tumour grows more slowly than the CT-2A tumour (Cotterchio et al. 1993. Mol. Chem. Neuropathol. 20:163-172). The method of Looney was used to determine tumour growth rates (volume increase/day) as previously described (Cotterchio et al. 1993. Mol. Chem. Neuropathol. 20:163-172). The results are shown in FIGS. 3A and 3B where values are expressed as means±SEM except for the control EPEN, which is the mean of two independent samples.

Data set [6] deals with CT-2A tumour. The data set is described as follows: Ganglioside neuraminic acid content of the CT-2A mouse brain tumour (Table 1). Type of data set: in vivo. The following applies: treated mice, mean of N=2. How it is done: as §3
In addition, NB-DNJ reduced ganglioside content in the CT-2A mouse brain tumour grown subcutaneously (See FIG. 4B and Table 1 below).

In data set [7] the test system is CT-2A tumour. The data set is described as follows: Subcutaneous CT-2A tumour growth in C57BL/6 mice. The following applies: NB-DNJ 2400 mg/kg body wt/day in diet, nine days. Type of data set: in vivo, mouse. How it is done: as §4
Setting [8] is: intra-cranial CT-2A tumours, NB-DNJ diet.

In the case of `CCCCCCCCCC(=O)N[C@H](CN1CCOCC1)[C@H](O)c1ccccc1` [D-PDMP, D-threo-1-phenyl-2-decanoylamino-3-morpholino-1-propanol], in data set [1] (Li et al 1996), the “ganglioside shedding by neuroblastoma tumours” value is on record as “reduces ganglioside shedding”. In addition, in data set [1] (Uemura et al 1990), the “neurite outgrowth by neuroblastoma cells” value is given as “inhibit neurite outgrowth”.
With `CCCCN1C[C@H](O)[C@@H](O)[C@H](O)[C@H]1CO` [NB-DNJ, N-butyldeoxynojirimycin], the “percentage of dead cells vs control (trypan blue exclusion)” value in data set [2] (EPEN culture) is on record as “did not differ significantly”. Besides, in data set [2] (after 8 days), the “growth inhibition of cultured EPEN tumour cells” value is “about 50%”. In data set [3] (NB-DNJ dietary treatment), the “intra-cranial growth of the CT-2A tumour” value is “significantly reduced”. Besides, the “blood brain barrier penetration” value in data set [3] (inferred from the effect on intra-cranial tumours, dietary treatment) is “can penetrate the blood brain barrier”. Besides, in data set [3] (setting [8]), the “reduction in ganglioside concentration” value is on record as 53% and the “reduction in tumour dry weight” value is reported as 55%. Also, the “percentage of dead cells vs control (trypan blue exclusion)” value in data set [4] (CT-2A culture) is on record as “did not differ significantly”. Also, the “growth inhibition of cultured CT-2A tumour cells” value in data set [4] (after 8 days) is recorded as “about 50%”. Besides, the “reduction of tumour growth rate compared to untreated controls” value in data set [5] is listed as 76%. In data set [6], the “Ganglioside Neuraminic Acid Content, NeuAc” value is 21.8 μg/100 mg dry wt; the “Ganglioside Neuraminic Acid Content, NeuGc” value stood at 5.6 μg/100 mg dry wt; the “Ganglioside Neuraminic Acid Content, Total” value was found to be 27.1 μg/100 mg dry wt. Also, the “reduction of tumour growth rate compared to untreated controls” value in data set [7] is on record as 68%.
